# Source: patent publication US20080015240A1, “Acid Salt of Benzimidazole Derivative and Crystal Thereof” (priority 2004, published 2008)
# Counter-ions that a name gives are not always drawn.
# What was measured:
# [1] = order in stability among crystal forms by solvent-mediated transformation of a mixture of crystals; type: physicochemical; settings: order may change depending on the solvent and temperature
# Excerpt: The order in stability among the crystal forms of each acid salt can be examined by solvent-mediated transformation of a mixture of crystals, but the order may change depending on the solvent and temperature. […]. […] […].
# [2] = solubility according to the General Rules of the Japanese Pharmacopoeia 14th Edition; type: physicochemical; settings: for solubility in Solution 1: Solution 1 of the Japanese Pharmacopoeia; for solubility in Solution 1 / solubility in Solution 2: 20±5° C. within 30 minutes; for solubility in Solution 2: Solution 2 of the Japanese Pharmacopoeia; for solubility in Water: powder shaken 30 seconds every 5 minutes at 20±5° C. within 30 minutes
# Procedure: […]. In accordance with the General Rules of the Japanese Pharmacopoeia 14th Edition, solubility (μg/mL) herein refers to an amount of a substance dissolved in a solvent after the substance in powder is placed in the solvent and the sample is shaken strongly for 30 seconds every 5 minutes at 20±5° C. within 30 minutes.
solubility in Solution 1 ([2]; sulfate) [µg/mL],solubility in Solution 2 ([2]; sulfate) [µg/mL],solubility in Water ([2]; sulfate) [µg/mL],relative stability of crystal form ([1]; sulfate),SMILES,further results
,,,,"Cc1cccc2scc(Cn3c(SCCCC(=O)O)nc4ccccc43)c12.Cl [Crystal-HB, 4-(1-((4-methylbenzothiophen-3-yl)methyl)benzimidazol-2-ylthio)butanoic acid hydrochloride]",relative stability of crystal form [1]: more stable than the other crystal forms
8.6,67.3,,,"Cc1cccc2scc(Cn3c(SCCCC(=O)O)nc4ccccc43)c12 [Crystal-SA, 4-(1-((4-methylbenzothiophen-3-yl)methyl)benzimidazol-2-ylthio)butanoic acid sulfate]",
7.6,74.0,0.1,close to that of crystal-SA,"Cc1cccc2scc(Cn3c(SCCCC(=O)O)nc4ccccc43)c12 [Crystal-SF, 4-(1-((4-methylbenzothiophen-3-yl)methyl)benzimidazol-2-ylthio)butanoic acid sulfate]",
19.8,24.2,0.8,,"Cc1cccc2scc(Cn3c(SCCCC(=O)O)nc4ccccc43)c12 [Crystal-SB, 4-(1-((4-methylbenzothiophen-3-yl)methyl)benzimidazol-2-ylthio)butanoic acid sulfate]",
,,,,"Cc1cccc2scc(Cn3c(SCCCC(=O)O)nc4ccccc43)c12 [Crystal A, 4-(1-((4-methylbenzothiophen-3-yl)methyl)benzimidazol-2-ylthio)butanoic acid, reference compound]",solubility in Solution 1 [2]: 2.5 µg/mL; solubility in Solution 2 [2]: 1.9 µg/mL
,,,less stable than crystal-SF,"Cc1cccc2scc(Cn3c(SCCCC(=O)O)nc4ccccc43)c12 [Crystal-SG, 4-(1-((4-methylbenzothiophen-3-yl)methyl)benzimidazol-2-ylthio)butanoic acid sulfate]",

SMILES,solubility in Solution 1 ([2]; sulfate) [µg/mL],solubility in Solution 2 ([2]; sulfate) [µg/mL],solubility in Water ([2]; sulfate) [µg/mL],relative stability of crystal form ([1]; sulfate),further results
"Cc1cccc2scc(Cn3c(SCCCC(=O)O)nc4ccccc43)c12 [Crystal-SC, 4-(1-((4-methylbenzothiophen-3-yl)methyl)benzimidazol-2-ylthio)butanoic acid sulfate]",10.6,72.4,0.1,more stable than the other four crystal forms,
